# Measured values from US20230065368A1, “INHIBITING UBIQUITIN SPECIFIC PEPTIDASE 9X” (FORMA Therapeutics, Inc., priority 2018, published 2023).
# Biological target: USP9X (Homo sapiens, UniProt Q93008)
# Assay: Biochemical Assay for USP9X Inhibition (Ub-Rh110 fluorescence)
# Conditions: Biochemical Assay of Example 1, 25 nM Ub-Rh110, 30 min preincubation, Table 23 additional compounds
# Method: Biochemical Assay for USP9X Inhibition
# Concentration and incubation times were optimized for the maximal signal-to-background while maintaining initial velocity conditions at a fixed substrate concentration (<<Km). […] To assay plates (pre-stamped with compound) was added 3 μL 2× Enzyme. The enzyme was preincubated for 30 minutes and then treated with 3 μL of 2× Substrate. […] The slope (best fit linear regression) of the five reads was used to normalize for inhibition. For all assays, data are reported as percent inhibition compared with control wells based on the following equation: […], wherein FLU is measured Fluorescence, AveLow is average Fluorescence of no enzyme control (n=64), and AveHigh is average Fluorescence of DMSO control (n=64). IC50 values are determined by curve fitting of the standard 4 parameter logistic fitting algorithm included in the Activity Base software package: IDBS XE Designer Model205. Data are fitted using the Levenburg Marquardt algorithm.
# USP9X, sequence (Q93008 whole entry, species assumed): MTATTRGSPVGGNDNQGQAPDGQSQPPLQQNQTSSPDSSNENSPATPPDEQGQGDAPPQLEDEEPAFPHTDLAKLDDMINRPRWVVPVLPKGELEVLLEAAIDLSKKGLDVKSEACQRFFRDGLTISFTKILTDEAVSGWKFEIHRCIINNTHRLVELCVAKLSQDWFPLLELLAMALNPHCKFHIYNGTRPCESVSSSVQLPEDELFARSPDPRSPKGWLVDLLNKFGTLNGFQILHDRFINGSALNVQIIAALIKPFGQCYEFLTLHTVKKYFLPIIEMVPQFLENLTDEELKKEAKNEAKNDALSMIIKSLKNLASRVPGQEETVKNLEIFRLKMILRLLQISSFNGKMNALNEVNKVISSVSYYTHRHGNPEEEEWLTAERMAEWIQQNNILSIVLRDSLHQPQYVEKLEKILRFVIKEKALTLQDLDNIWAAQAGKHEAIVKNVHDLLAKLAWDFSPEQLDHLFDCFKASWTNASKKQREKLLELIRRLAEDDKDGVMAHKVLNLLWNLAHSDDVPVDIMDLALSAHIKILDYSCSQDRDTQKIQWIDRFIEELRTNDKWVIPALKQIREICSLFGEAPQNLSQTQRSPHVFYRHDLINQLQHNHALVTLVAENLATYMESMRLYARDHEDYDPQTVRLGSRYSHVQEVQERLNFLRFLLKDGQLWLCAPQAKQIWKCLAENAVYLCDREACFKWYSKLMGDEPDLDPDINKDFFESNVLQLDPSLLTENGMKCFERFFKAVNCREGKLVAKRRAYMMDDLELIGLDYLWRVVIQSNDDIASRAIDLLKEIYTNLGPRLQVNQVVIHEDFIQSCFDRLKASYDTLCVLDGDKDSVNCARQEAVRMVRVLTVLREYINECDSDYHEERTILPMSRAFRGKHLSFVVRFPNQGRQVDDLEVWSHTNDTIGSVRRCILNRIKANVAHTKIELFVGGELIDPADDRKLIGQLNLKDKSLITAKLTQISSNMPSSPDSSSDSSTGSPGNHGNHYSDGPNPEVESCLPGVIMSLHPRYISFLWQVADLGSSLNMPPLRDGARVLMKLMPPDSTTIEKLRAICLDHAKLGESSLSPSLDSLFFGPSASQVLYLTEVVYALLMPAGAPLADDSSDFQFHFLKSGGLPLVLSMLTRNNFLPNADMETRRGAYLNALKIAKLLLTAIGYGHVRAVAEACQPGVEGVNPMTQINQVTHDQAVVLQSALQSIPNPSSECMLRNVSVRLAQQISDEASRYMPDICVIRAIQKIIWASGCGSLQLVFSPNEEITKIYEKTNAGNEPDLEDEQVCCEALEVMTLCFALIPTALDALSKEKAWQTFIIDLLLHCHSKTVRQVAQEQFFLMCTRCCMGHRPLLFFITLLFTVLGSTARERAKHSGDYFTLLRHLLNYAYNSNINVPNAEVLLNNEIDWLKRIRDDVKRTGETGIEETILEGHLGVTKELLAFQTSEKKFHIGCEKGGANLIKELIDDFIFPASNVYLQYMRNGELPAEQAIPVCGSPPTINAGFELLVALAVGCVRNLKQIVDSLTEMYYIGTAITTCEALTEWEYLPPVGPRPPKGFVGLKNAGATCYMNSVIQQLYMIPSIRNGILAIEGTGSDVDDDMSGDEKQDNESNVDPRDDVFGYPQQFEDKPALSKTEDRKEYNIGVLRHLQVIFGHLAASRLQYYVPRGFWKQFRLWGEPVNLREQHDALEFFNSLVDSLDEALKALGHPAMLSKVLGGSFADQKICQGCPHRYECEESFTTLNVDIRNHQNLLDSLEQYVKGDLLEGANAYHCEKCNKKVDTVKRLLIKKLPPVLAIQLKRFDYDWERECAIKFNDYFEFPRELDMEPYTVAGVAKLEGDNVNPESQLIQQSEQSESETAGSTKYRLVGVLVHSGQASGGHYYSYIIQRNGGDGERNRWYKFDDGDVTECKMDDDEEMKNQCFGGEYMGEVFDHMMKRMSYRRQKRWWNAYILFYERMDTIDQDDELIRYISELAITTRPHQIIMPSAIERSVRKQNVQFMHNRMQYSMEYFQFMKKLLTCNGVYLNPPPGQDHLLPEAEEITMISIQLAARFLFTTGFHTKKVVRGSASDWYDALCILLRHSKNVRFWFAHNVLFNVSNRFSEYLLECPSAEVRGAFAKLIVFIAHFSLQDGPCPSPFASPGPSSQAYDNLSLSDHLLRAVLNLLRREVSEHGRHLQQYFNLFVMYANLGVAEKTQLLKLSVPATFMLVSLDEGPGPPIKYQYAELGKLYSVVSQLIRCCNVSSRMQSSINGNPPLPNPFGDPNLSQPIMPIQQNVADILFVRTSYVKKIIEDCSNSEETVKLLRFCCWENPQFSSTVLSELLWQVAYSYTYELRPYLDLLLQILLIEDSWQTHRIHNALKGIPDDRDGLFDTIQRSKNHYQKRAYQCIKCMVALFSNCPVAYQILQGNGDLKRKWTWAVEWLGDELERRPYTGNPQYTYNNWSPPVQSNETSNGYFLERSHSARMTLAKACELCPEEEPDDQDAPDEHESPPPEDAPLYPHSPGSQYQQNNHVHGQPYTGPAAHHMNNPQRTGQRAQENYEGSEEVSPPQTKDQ
row,Structure (SMILES),IC50 [µM]
1,O=C([C@H](CO)c1ccccc1)N1CC2=C(C1)CN(S(=O)(=O)c1cnc3c(c1)OCCO3)C2 [Example C-8],2 to 25
2,O=C([C@@H](CO)c1ccccc1)N1CC2=C(C1)CN(S(=O)(=O)c1cnc3c(c1)OCCO3)C2 [Example C-7],0.2 to 2
